Source: US8759400B2, “Histone deacetylase inhibitors for enhancing activity of antifungal agents” (MethylGene Inc., priority 2005, dated 2014)
Read-outs that look alike come from different tables or passages of the source. Blank lines part the entries; values can stand above or below the compound they belong to.

Legend:
A. fumigatus ATCC 1022 = test: MIC80 and checkerboard synergy, broth microdilution (NCCLS M38-A); type: cell-based, Aspergillus fumigatus; settings: for conc. for 4-fold synergy: 48 hours
C. glabrata (ATCC 90030) = test: MIC80 and checkerboard synergy with antifungal agents; type: cell-based, Candida glabrata
HDAC [1] = test: HDAC inhibitory activity in fungal protoplasts (Fluor-de-Lys); type: cell-based, Candida glabrata; settings: C. glabrata protoplasts
Method: (§1) Protoplasts of C. albicans and C. glabrata are prepared by the […] method of Franzusoff et al.

C. albicans (ATCC 90028) = test: MIC80 and checkerboard synergy with antifungal agents; type: cell-based, Candida albicans
HMEC [2] = test: Mammalian cytotoxicity, MTT reduction
HDAC [3] = test: HDAC inhibitory activity in fungal protoplasts (Fluor-de-Lys); type: cell-based, Candida albicans; settings: C. albicans protoplasts; for HDAC inhibition, per cent in parentheses beside IC50 >20: concentration not given
Method: as §1

HMEC [4] = settings: human
HDAC [5] = test: HDAC inhibitory activity in fungal protoplasts (Boc-Lys(Ac)-AMC); type: cell-based, Aspergillus fumigatus; settings: A. fumigatus protoplasts
[6] = with ketoconazole, A. fumigatus ATCC 1022
[7] = Nakaseomyces glabratus, ATCC90030, compound alone, C. glabrata (ATCC 90030), read-out: MIC80
[8] = Candida albicans, ATCC90028, compound alone, C. albicans (ATCC 90028), read-out: MIC80
[9] = Nakaseomyces glabratus, ATCC90030, compound alone, C. glabrata (ATCC 90030)
[10] = with fluconazole, A. fumigatus ATCC 1022

MIC (C. glabrata (ATCC 90030); [7]): > 50 mg/L | HDAC inhibition IC50 (HDAC [1]): > 20 mg/L | HDAC inhibition, per cent in parentheses beside IC50 >20 (HDAC [1]; concentration not given): 37% | MIC (C. albicans (ATCC 90028); [8]): > 8 mg/L | HDAC inhibition IC50 (HDAC [3]): > 20 mg/L | HDAC inhibition, per cent in parentheses beside IC50 >20 (HDAC [3]): 42%
Compound: O=C(Cc1ccc(CCCc2ccccc2)cc1)NO [Cpd 5]
conc. for 4-fold synergy (A. fumigatus ATCC 1022; [6]): 4 µg/mL | MTT HMEC (HMEC [2]): 47 µM

MIC (A. fumigatus ATCC 1022; Aspergillus fumigatus, ATCC1022, 48 h, compound alone, A. fumigatus ATCC 1022, read-out: MIC80): > 128 mg/L | MIC (C. glabrata (ATCC 90030); [7]): > 64 mg/L | MTT HMEC (HMEC [4]): 0.75 µM | HDAC inhibition IC50 (HDAC [5]): 0.01 mg/L | HDAC inhibition IC50 (HDAC [1]): 0.01 mg/L | MIC (C. albicans (ATCC 90028); [8]): > 128 mg/L | HDAC inhibition IC50 (HDAC [3]): 0.01 mg/L
Compound: O=C(/C=C/c1ccc(CN(CCO)CCc2c[nH]c3ccccc23)cc1)NO [LAQ-824, reference compound]
conc. for 4-fold synergy (A. fumigatus ATCC 1022; [6]): >128 µg/mL

MIC50 (C. glabrata (ATCC 90030); [9]): > 25 mg/L
Compound: O=C(Cc1ccc(CCCCc2ccc3[nH]ccc3c2)cc1)NO

Compound: O=C(NO)c1ccc(CN2c3ccccc3NC(=O)[C@H]2Cc2ccc3ccccc3c2)cc1 [Cpd 22]
MTT HMEC (HMEC [2]): 8 µM | HDAC inhibition IC50 (HDAC [3]): ~0.6 mg/L

Compound: CC(/C=C/C(=O)NO)=C\C(C)Cc1ccc(N(C)C)cc1 (stereo not shown) [drawing 131]
conc. for 4-fold synergy (24 hr) (C. glabrata (ATCC 90030); with itraconazole, C. glabrata (ATCC 90030), 24 hr): 1.56 (24 hr) μg/ml | MTT HMEC (HMEC [2]): 44 µM

MIC80 (C. glabrata (ATCC 90030); [7]): > 64 mg/L | MIC80 (C. albicans (ATCC 90028); [8]): > 128 mg/L
Compound: O=C(CCCCCCC(=O)Nc1ccccc1)NO [SAHA, suberoylanilide hydroxamic acid, reference compound]
MTT HMEC (HMEC [2]): 18 µM

MIC (C. albicans (ATCC 90028); Candida albicans, ATCC90028, terbinafine alone, C. albicans, read-out: Terbinafine MIC): 0.39 mg/L
Compound: CN(C/C=C/C#CC(C)(C)C)Cc1cccc2ccccc12 [Terbinafine, terbinafine, reference compound]

Compound: COC(c1ccc(N(C)C)cc1)C(C)/C=C(C)/C=C/C(=O)NO (stereo not shown) [Cpd 10]
MTT HMEC (HMEC [2]): 50 µM

MIC50 (C. glabrata (ATCC 90030); [9]): 3.1 mg/L
Compound: O=C(Cc1ccc(CCCCc2cc(F)c(F)cc2F)cc1)NO

Compound: O=C(CCCCCC/C(=N\O)c1ccc(-c2ccccc2)cc1)NO
MTT HMEC (HMEC [2]): 6 µM

Compound: O=C(Cc1ccc(CCCCc2ccccc2)cc1)NO [drawing 149]
conc. for 4-fold synergy (A. fumigatus ATCC 1022; [10]): >1 µg/mL

Compound: C[C@@H]([C@H](N)C(=O)N[C@H](C(=O)O)[C@H]1O[C@@H](n2ccc(=O)[nH]c2=O)[C@H](O)[C@@H]1O)[C@H](O)c1ccc(O)cn1 [Nikkomycin, nikkomycin, reference compound]
MIC (C. albicans (ATCC 90028); Candida albicans, ATCC90028, read-out: Nikkomycin MIC): 100 mg/L

Compound: CC(/C=C/C(=O)NO)=C\C(C)Cc1ccc(N(C)C)cc1 (stereo not shown) [drawing 125]
MTT HMEC (HMEC [2]): 44 µM

Compound: O=C(NO)c1ccc(CCCC(O)c2ccc3ccccc3c2)cc1 (stereo not shown) [Cpd 16]
MTT HMEC (HMEC [2]): 25 µM

HDAC inhibition IC50 (HDAC [3]): ~0.6 mg/L
Compound: O=C(NO)c1ccc(CN2c3ccccc3NC(=O)[C@H]2Cc2cccc(C(F)(F)F)c2)cc1 [Cpd 23]

Compound: CC(/C=C/C(=O)NO)=C\C(C)Cc1ccc(N(C)C)cc1 (stereo not shown) [Cpd 12]
conc. for 4-fold synergy (A. fumigatus ATCC 1022; [6]): 0.125 µg/mL | MTT HMEC (HMEC [2]): 44 µM

Compound: O=C(Cc1ccc(CCCCc2ccccc2)cc1)NO [drawing 144]
MTT HMEC (HMEC [2]; Table 9 head): 1.3e-05 µM

HDAC inhibition IC50 (HDAC [5]): 2.0 mg/L
Compound: CC(/C=C/C(=O)NO)=C\C(C)Cc1ccc(N(C)C)cc1 (stereo not shown) [drawing 148]
conc. for 4-fold synergy (A. fumigatus ATCC 1022; [10]): 0.25 µg/mL | MTT HMEC (HMEC [2]): 44 µM

Compound: Oxamflatin [reference compound]
MIC80 (A. fumigatus ATCC 1022; compound alone, A. fumigatus ATCC 1022): >128 mg/L | conc. for 4-fold synergy (A. fumigatus ATCC 1022; [6]): >128 µg/mL | MIC80 (C. glabrata (ATCC 90030); compound alone, C. glabrata (ATCC 90030)): >64 mg/L | conc. for 4-fold synergy (C. glabrata (ATCC 90030); with ketoconazole, C. glabrata (ATCC 90030), 48 hours): 128 µg/mL | HDAC inhibition IC50 (HDAC [5]): 5.0 mg/L | HDAC inhibition IC50 (HDAC [1]): ~7 mg/L | MIC80 (C. albicans (ATCC 90028); compound alone, C. albicans (ATCC 90028)): >64 mg/L | conc. for 4-fold synergy (C. albicans (ATCC 90028); with ketoconazole, C. albicans (ATCC 90028), 48 hours): 16 µg/mL | MTT HMEC (HMEC [2]): 2 µM | HDAC inhibition IC50 (HDAC [3]): >20 mg/L

Compound: CC(/C=C/C(=O)NO)=C\C(C)Cc1ccc(N(C)C)cc1 (stereo not shown) [drawing 137]
MTT HMEC (HMEC [2]): 44 µM

HDAC inhibition IC50 (HDAC [5]): 2.0 mg/L
Compound: CC(/C=C/C(=O)NO)=C\C(C)Cc1ccc(N(C)C)cc1 (stereo not shown) [drawing 152]
conc. for 4-fold synergy (A. fumigatus ATCC 1022; with voriconazole, A. fumigatus (ATCC 1022)): 0.25 µg/mL | MTT HMEC (HMEC [2]): 44 µM

HDAC inhibition IC50 (HDAC [3]): > 20 mg/L | HDAC inhibition, per cent in parentheses beside IC50 >20 (HDAC [3]): 16%
Compound: O=C(Cc1ccccc1)NC(=S)Nc1ccc(Nc2ccnc3ccsc23)cc1 [Cpd 20]
MTT HMEC (HMEC [2]): 50 µM

MIC50 (C. glabrata (ATCC 90030); [9]): 32 mg/L
Compound: O=C(Cc1cccc(CCCCc2ccccc2)c1)NO

Compound: CC(Cc1ccc(C(C)(C)C)cc1)CN1C[C@@H](C)O[C@@H](C)C1 (stereo partly shown) [Fenpropimorph, fenpropimorph, reference compound]
MIC (C. glabrata (ATCC 90030); Nakaseomyces glabratus, ATCC90030, fenpropimorph alone, C. glabrata, read-out: Fenpropimorph MIC): 6.25 mg/L
